Measurements taken from patent publication US20050084528A1, “Anti-platelet aggregation compositions” (priority 2003, published 2005).
Like-named read-outs stand apart in the source and are kept apart here.

What was measured:
[1] = test system: platelet aggregation induced by AA; assay: Ex vivo platelet aggregation in platelet rich plasma of volunteers after a single oral dose, induced by arachidonic acid (1.6 mM); design: species or system human; details: for inhibition of platelet aggregation induced by AA (in words): single oral dose, 24 hours
Method: (§1) The PRP samples were treated in vitro with calcium ionophore (A23187, 2.5 μM) or arachidonic acid (AA, 1.6 mM) to induce maximal aggregation. Platelet aggregation was monitored using a Dual-channel Lumi-aggregometer (Model 400, Chronolog Corporation, USA) using 0.45 ml samples of PRP. The resulting aggregation was recorded for all of the samples and a comparison was made between the pre- and post-test drug ingestion aggregation levels. The data was analysed using the Student's t-test and differences were considered significant when probability (p) was <0.05.

[2] = test system: platelet aggregation induced by A23187; assay: Ex vivo platelet aggregation in platelet rich plasma of volunteers after a single oral dose, induced by calcium ionophore A23187 (2.5 μM); design: species or system human; details: for % Inhibition A23187: aspirin 10 mg single oral dose, blood 24 hours after ingestion vs pre-dose, PRP, A23187 2.5 μM; for inhibition of platelet aggregation induced by A23187 (in words): single oral dose, 24 hours
Method: as §1

[3] = test system: platelet aggregation induced by AA; details: Saeed et al. 1998; cited from earlier work
[4] = test system: platelet aggregation induced by PAF; details: Saeed et al. 1998; cited from earlier work
[5] = test system: platelet aggregation induced by adrenaline; details: Saeed et al. 1998; cited from earlier work
[6] = aspirin at a dose of 20 mg or 40 mg
[7] = nimesulide at doses of 25 or 50 mg

Row | Structure (SMILES) | % Inhibition AA ([1]; aspirin 10 mg single oral dose, blood 24 hours after ingestion vs pre-dose, PRP, AA 1.6 mM) [%] | inhibition of platelet aggregation induced by AA (in words) ([1]; aspirin 10 mg) | inhibition of platelet aggregation induced by AA (in words) [1, 6] | % Inhibition A23187 [2] [%] | % Inhibition A23187 ([2]; listed as aspirin) | inhibition of platelet aggregation induced by A23187 (in words) [2, 6] | inhibition of platelet aggregation induced by AA (in words) [3] | inhibition of platelet aggregation induced by PAF (in words) [4] | inhibition of platelet aggregation induced by AA (in words) [1, 7] | inhibition of platelet aggregation induced by A23187 (in words) [2, 7] | inhibition of platelet aggregation induced by adrenaline (in words) [5]
1 | CC(=O)Oc1ccccc1C(=O)O [Aspirin, 2-acetoxybenzoic acid] | 4 | ineffective | effectively inhibited | 27 | about 25% | effectively inhibited | inhibit | inhibit |  |  | 
2 | CS(=O)(=O)Nc1ccc([N+](=O)[O-])cc1Oc1ccccc1 [Nimesulide, N-(4-nitro-2-phenoxyphenyl)methanesulfonamide] |  |  |  |  |  |  | inhibit | inhibit | effectively inhibited | effectively inhibited | inhibits
